In ChEMBL document CHEMBL4368941, “Discovery of 3,6-diaryl-1H-pyrazolo[3,4-b]pyridines as potent anaplastic lymphoma kinase (ALK) inhibitors” (Bioorg Med Chem Lett, 2019):

Columns and labels:
[1] = biological target: ALK tyrosine kinase receptor (Homo sapiens, UniProt Q9UM73)
Description: Inhibition of recombinant ALK (unknown origin) using peptide substrate measured after 1 hr by LanthaScreen assay

KARPAS-299 = assay: cells; settings: Homo sapiens, KARPAS-299, 72 h
Description: Antiproliferative activity against human KARPAS299 cells after 3 days by MTT assay

Sequence of ALK tyrosine kinase receptor (Q9UM73 whole entry): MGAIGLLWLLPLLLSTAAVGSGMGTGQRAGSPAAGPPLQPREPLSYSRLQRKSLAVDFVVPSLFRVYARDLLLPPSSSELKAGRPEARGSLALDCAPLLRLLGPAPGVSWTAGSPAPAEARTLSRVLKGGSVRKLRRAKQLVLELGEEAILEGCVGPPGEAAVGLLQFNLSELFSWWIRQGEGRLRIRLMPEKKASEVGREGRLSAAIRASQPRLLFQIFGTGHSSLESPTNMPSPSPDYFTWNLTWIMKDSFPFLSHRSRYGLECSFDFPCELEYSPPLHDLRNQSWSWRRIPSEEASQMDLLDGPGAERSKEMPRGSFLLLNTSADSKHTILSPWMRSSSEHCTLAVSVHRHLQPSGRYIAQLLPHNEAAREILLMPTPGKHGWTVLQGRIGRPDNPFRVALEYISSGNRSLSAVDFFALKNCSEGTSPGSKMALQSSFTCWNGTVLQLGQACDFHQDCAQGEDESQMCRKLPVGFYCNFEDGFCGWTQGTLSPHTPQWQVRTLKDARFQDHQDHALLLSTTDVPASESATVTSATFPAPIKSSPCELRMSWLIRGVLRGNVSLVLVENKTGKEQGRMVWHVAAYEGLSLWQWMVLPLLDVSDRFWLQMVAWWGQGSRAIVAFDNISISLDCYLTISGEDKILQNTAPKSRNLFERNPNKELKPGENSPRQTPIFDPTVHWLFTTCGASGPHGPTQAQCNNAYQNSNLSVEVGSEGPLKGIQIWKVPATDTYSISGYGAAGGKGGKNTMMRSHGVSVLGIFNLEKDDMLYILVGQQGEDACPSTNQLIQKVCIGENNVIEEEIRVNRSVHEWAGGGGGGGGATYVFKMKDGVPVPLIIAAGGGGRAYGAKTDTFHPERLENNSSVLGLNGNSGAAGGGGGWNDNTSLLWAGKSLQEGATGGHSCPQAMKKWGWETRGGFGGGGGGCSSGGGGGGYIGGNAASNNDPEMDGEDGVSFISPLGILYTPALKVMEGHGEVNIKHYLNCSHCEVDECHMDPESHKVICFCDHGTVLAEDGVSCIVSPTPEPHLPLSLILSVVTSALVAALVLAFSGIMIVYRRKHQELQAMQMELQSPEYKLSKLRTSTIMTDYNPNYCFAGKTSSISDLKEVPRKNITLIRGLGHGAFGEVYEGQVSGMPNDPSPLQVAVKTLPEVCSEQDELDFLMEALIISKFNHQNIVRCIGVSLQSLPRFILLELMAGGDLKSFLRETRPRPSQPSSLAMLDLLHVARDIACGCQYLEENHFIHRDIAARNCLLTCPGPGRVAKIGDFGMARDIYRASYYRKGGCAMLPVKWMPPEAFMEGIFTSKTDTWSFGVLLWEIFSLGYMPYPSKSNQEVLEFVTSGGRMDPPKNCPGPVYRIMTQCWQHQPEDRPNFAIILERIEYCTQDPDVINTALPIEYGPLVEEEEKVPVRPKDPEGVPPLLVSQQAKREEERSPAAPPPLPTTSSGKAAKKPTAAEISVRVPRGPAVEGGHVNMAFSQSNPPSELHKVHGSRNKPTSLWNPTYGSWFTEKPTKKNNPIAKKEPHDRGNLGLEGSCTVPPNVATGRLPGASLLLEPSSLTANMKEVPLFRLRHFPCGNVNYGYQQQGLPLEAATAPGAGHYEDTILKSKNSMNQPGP

IC50 [1] [nM]	IC50 (KARPAS-299) [nM]	Structure (SMILES)
425	–	Oc1ccc(-c2ccc3c(-c4ccc(N5CCOCC5)cc4)n[nH]c3n2)cc1
> 2000	105000	CC(C)N1CCN(c2ccc(-c3n[nH]c4nc(-c5ccc(C(C)(C)O)cc5)ccc34)cc2)CC1
> 2000	> 2000	CC(C)N1CCN(c2ccc(-c3n[nH]c4nc(-c5ccc(C#N)cc5)ccc34)cc2)CC1
> 2000	–	Oc1ccc(-c2ccc3c(-c4ccc(Cl)cc4)n[nH]c3n2)cc1
83.2	–	CN(CCO)Cc1ccc(-c2n[nH]c3nc(-c4ccc(O)cc4)ccc23)o1
194	–	CN1CCN(Cc2ccc(-c3n[nH]c4nc(-c5ccc(O)cc5)ccc34)o2)CC1
251	24.2	Oc1ccc(-c2ccc3c(-c4ccccc4)n[nH]c3n2)cc1
130	–	Oc1ccc(-c2ccc3c(-c4ccc(O)cc4)n[nH]c3n2)cc1
103	–	CC(C)N1CCN(Cc2ccc(-c3n[nH]c4nc(-c5ccc(O)cc5)ccc34)o2)CC1
> 2000	–	CC(C)N1CCN(c2ccc(-c3n[nH]c4nc(-c5ccc(F)cc5)ccc34)cc2)CC1

Continued, compound first:

Structure (SMILES)	IC50 [1] [nM]	IC50 (KARPAS-299) [nM]
Oc1ccc(-c2ccc3c(-c4ccc(N5CCCCC5)cc4)n[nH]c3n2)cc1	339	–
OCC1CCCCN1Cc1ccc(-c2n[nH]c3nc(-c4ccc(O)cc4)ccc23)o1 (stereo not drawn)	568	–
Oc1ccc(-c2ccc3c(-c4cnn(C5CCNCC5)c4)n[nH]c3n2)cc1	13.8	340
Oc1ccc(-c2ccc3c(-c4ccc(CN5CCCCC5)o4)n[nH]c3n2)cc1	394	–
CC(C)N1CCN(c2ccc(-c3n[nH]c4nc(-c5ccc(Cl)cc5)ccc34)cc2)CC1	> 2000	> 10000
CC(C)N1CCN(c2ccc(-c3n[nH]c4nc(-c5ccc(O)cc5)ccc34)cc2)CC1	47.4	–
CC(C)N1CCN(c2ccc(-c3n[nH]c4nc(-c5cc(F)c(O)c(F)c5)ccc34)cc2)CC1	649	149
Cc1ccc(-c2n[nH]c3nc(-c4ccc(O)cc4)ccc23)o1	53.9	–
Oc1ccc(-c2ccc3c(-c4ccc(CN5CCOCC5)o4)n[nH]c3n2)cc1	94.1	–
Oc1ccc(-c2ccc3c(-c4ccc(CN5CCCC5)o4)n[nH]c3n2)cc1	253	–
Oc1ccc(-c2ccc3c(-c4ccc(F)cc4)n[nH]c3n2)cc1	336	–
COc1ccc(-c2n[nH]c3nc(-c4ccc(O)cc4)ccc23)cc1	239	–
COc1cc(N2CCN(C(C)C)CC2)ccc1-c1n[nH]c2nc(-c3ccc(O)c(F)c3)ccc12	53.1	263
CC(C)N1CCN(c2ccc(-c3n[nH]c4nc(-c5ccc(O)c(F)c5)ccc34)cc2)CC1	1.58	> 2000
COc1cc(N2CCN(C(C)C)CC2)ccc1-c1n[nH]c2nc(-c3ccc(O)cc3)ccc12	27	2850
Oc1ccc(-c2ccc3c(-c4cnn(C5CCNCC5)c4)n[nH]c3n2)cc1F	39.6	2100
CC(C)N1CCN(c2ccc(-c3n[nH]c4nc(-c5ccc(N)cc5)ccc34)cc2)CC1	218	> 10000
